We go through five compounds from patent publication US6833372B2, “Non-peptide GnRH agents, Pharmaceutical compositions, and methods for their use” (Pfizer, Inc., priority 2002, dated 2004).

≈ marks a conversion by molar mass, not a printed value. Read-outs that look alike come from different tables or passages of the source.

Data set [1] in a line: In vitro metabolism: disappearance of parent compound in rat liver microsomes (male, female). It is filed as in vitro ADME. The conditions noted are these: 5 uM compound, 30 minutes 37° C.; for Fem. Rat (FR) % rem. 30′: female rat liver microsomes; for Male Rat (MR) % rem. 30′: male rat liver microsomes. In a few lines: (§1)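 Microsomes from human, rat (male, female), dog and monkey liver incubated with 5 uM compound, 0.5 mg/ml protein and 2 mM NADPH in 50 mM K phosphate, pH 7.4, for 30 min at 37° C. Reaction stopped with acetonitrile; parent compound remaining measured by LC-MS.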

The nature of data set [2]: Solubility at pH2 and pH6. It is filed as physicochemical.
Data set [3] is described as follows: Rat plasma % remain. It is filed as in vitro ADME.
Data set [4] in a line: In vitro metabolism: disappearance of parent compound in monkey liver microsomes. It is filed as in vitro ADME. Particulars: 5 uM compound, 30 minutes 37° C. Put shortly:
as §1
On the technique in general: Microsomes from liver hold many membrane-bound enzymes, among them those of drug oxidation.

Data set [5] deals with T1, mouse GnRH receptors (Mus musculus, UniProt Q01776).
T1 construct: expressed in transfected cells; host or cells: HEK 293 cells, stably transfected; membranes
T1 sequence (Q01776 1-327): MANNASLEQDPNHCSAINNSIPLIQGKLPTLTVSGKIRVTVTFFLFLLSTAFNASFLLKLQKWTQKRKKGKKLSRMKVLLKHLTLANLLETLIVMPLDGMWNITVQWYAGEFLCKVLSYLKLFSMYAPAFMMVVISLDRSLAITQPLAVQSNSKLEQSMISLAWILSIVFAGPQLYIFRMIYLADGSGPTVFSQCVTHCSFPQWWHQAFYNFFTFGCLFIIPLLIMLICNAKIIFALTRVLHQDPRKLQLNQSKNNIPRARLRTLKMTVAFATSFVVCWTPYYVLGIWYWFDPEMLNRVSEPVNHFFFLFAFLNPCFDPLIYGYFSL
Put plainly: Radioligand binding: inhibition of 125I-GnRH-A binding to mouse GnRH receptor membranes. Particulars: HEK 293 cell membranes. The procedure:
HEK 293 cells stably transfected with mouse or human GnRH receptors as described above were grown in Dulbecco's high-glucose, modified Eagle's medium (DMEM) supplemented with 0.2% G418, 10% fetal bovine serum (FBS) and 100 U/mL penicillin/streptomycin. GH3 cells stably transfected with the rat GnRH receptor (GGH3) were provided by Dr. William Chin (Harvard Medical School, Boston, Mass.). These cells have been extensively characterized previously (Kaiser et al., 1997). The cells were grown in low glucose DMEM containing: 100U/mL penicillin/streptomycin, 0.6% G418 and 10% heat-inactivated FBS.
HEK 293 cells containing mouse or human receptors, or rat pituitaries (Pel Freez Biologicals, Rogers, Ark.) were homogenized in buffer A containing: 50 mM Tris (pH 7.4), 0.32 M sucrose, 2 mM EGTA, 1 mM PMSF, 5 μg/ml aprotinen, 5 μg/ml Pepstatin A, and 1 μg/ml leupeptin. Homogenized cells were centrifuged at 4° C. at 20,000×g for 25 minutes, re-suspended in buffer A and re-centrifuged at 4° C. at 20,000×g for an additional 25 minutes. Total membrane protein was determined with a BCA kit (Pierce, Rockford, Ill.). Membranes were stored at −70° C. at a final membrane protein concentration of approximately 5 mg/ml.
The radioiodinated agonist analog of GnRH, [des-Gly^10,D-Ala^6]GnRH ethylamide (^125I-GnRH-A), was used as the radioligand. […] The reaction mixture was vortexed and incubated for 1 minute at room temperature. After one minute, the mixture was vortexed and allowed to incubate for an additional minute. 2 ml of 0.5 M acetic acid/1% BSA was added to the reaction tube and the mixture was added to a C18 Sep-Pak cartridge. The cartridge was washed with subsequent washes of 5 ml H2O and 5 ml 0.5 M acetic acid and then eluted with 5×1 ml of 60% CH3CN/40% 0.5 M acetic acid. The eluate was diluted with 3× volume of HPLC buffer A (0.1% TFA in H2O) and loaded onto a C18 column. The iodinated product was eluted over 20-25 min with a gradient of 25-100% CH3CN containing 0.1% TFA. The radioactive fractions (750 μl/fraction) were collected into clean polypropylene tubes containing 100 μl of 10% BSA. Fractions were assessed for biological activity by radioligand binding. Specific activity of the radioligand was approximately 2200 Ci/mmol.
Membranes were diluted to 0.01-0.5 mg/ml (depending upon the species of receptor) with assay buffer containing 50 mM HEPES (pH 7.4), 1 mM EDTA, 2.5 mM MgCl2, and 0.1% BSA. Membranes (diluted to utilize similar receptor numbers between assays) were incubated with approximately 0.04-0.06 nM ^125I-GnRH-A in the presence or absence of competing agents (0.1-10,000 nM) in a total volume of 200 μl in 96-well polypropylene plates for 1 hour at room temperature. Assays were stopped by rapid filtration onto 96-well GF/C filters soaked in 0.1% polyethylenimine (PEI) utilizing a Packard 96-well cell harvester. Filters were washed three times with ice-cold PBS (50 mM NaPO4, 0.9% NaCl, 2 mM MgCl2, and 0.02% NaN3, pH 7.4). 35 μl of scintillation cocktail was added to each filter well and filters were counted on a Packard Topcount. Control dose-response curves were generated to GnRH (0.1 nM-100 nM) in each competition binding experiment. Ki values were calculated from IC50 values according to Cheng et al., Biochemical Pharmacol. 22: 3099-3108, 1973. [formula]

Data set [6] can be described thus: In vitro metabolism: disappearance of parent compound in human liver microsomes. It is filed as in vitro ADME. Particulars: 5 uM compound, 0.5 mg/ml protein, 2 mM NADPH, 30 minutes 37° C. Put shortly:
as §1

Data set [7] has as its target T2, human GnRH receptors (Homo sapiens, UniProt P30968).
T2 construct: expressed in transfected cells; host or cells: HEK 293 cells, stably transfected; membranes
T2 sequence (P30968 1-328): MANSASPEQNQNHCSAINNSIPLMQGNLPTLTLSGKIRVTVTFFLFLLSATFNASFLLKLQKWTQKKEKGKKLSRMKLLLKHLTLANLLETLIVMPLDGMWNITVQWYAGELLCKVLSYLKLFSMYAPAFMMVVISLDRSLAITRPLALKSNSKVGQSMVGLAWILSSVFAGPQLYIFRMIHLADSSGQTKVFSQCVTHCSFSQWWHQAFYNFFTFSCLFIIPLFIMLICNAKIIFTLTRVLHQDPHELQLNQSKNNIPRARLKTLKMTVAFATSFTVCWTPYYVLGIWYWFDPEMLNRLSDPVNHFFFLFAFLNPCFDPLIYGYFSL
Put plainly: Radioligand binding: inhibition of 125I-GnRH-A binding to human GnRH receptor membranes. Particulars: HEK 293 cell membranes. Put shortly:
(§2)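 Membranes from rat pituitaries, or HEK 293 cells stably expressing mouse or human receptor, incubated 1 hour at room temperature with ~0.04-0.06 nM radioligand (HEPES pH 7.4, EDTA, MgCl2, BSA) and competitor at 0.1-10,000 nM. Bound ligand collected by GF/C filtration and counted; Ki derived from IC50 by Cheng-Prusoff.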

In data set [8] the target is T3, rat GnRH receptor (Rattus norvegicus, UniProt P30969).
T3 construct: or rat pituitaries (Pel Freez Biologicals, Rogers, Ark.) were homogenized; tissue Pel Freez Biologicals; host or cells: rat pituitaries (membrane preparation)
T3 sequence (P30969 1-327): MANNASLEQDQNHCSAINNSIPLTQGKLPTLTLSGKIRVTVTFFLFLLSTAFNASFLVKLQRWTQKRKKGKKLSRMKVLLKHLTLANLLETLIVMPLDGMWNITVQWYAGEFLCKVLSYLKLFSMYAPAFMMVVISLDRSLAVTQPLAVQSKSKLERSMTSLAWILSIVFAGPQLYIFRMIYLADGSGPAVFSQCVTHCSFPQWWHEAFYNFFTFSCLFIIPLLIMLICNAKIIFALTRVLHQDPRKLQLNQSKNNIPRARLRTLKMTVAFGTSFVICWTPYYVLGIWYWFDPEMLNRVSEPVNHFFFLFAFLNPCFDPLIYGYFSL
Put plainly: Radioligand binding: inhibition of 125I-GnRH-A binding to rat GnRH receptor (rat pituitary membranes). The conditions noted are these: read-out: Ki (nM), Inhibition Binding of 125I-GnRH-A to GnRH Receptors. In a few lines:
as §2

Data set [9] is described as follows: In vitro metabolism: disappearance of parent compound in dog liver microsomes. Particulars: 5 uM compound, 30 minutes 37° C. The format is in vitro ADME. Put shortly:
as §1

Data set [10] addresses H S A (Homo sapiens, UniProt P02768). Put plainly: H S A column α. The format is in vitro ADME.
The nature of data set [11]: Pharmacokinetics in rats (jugular vein cannula, plasma LC-MS). The conditions noted are these: female rat, 10 mg/kg as 5 mg/ml solution in 10% DMSO, 10% cremophor, 80% saline (footnote 5); for Cmax / half-life / Tmax: female, rat, plasma, po, 10 mg/kg; for Cmax: read-out: FR Cmax; for half-life: read-out: FR T1/2 hr (converted); for Tmax: read-out: FR Tmax hr. It is filed as in vivo, Rat. The procedure:
Rats (male or female, 200-225 g) were prepared with indwelling jugular vein cannula as described by Harms et al., Applied Physiol. 36:391-398 (1974), and allowed to recover overnight with free access to the standard vivarium chow and water. […] […] The blood samples were withdrawn at specific times, plasma was immediately separated and compound extracted with ethyl acetate. The samples were analyzed by LC-MS using 30-90% gradient of ACN in 50 mM ammonium acetate.
The pharmacokinetic parameters were calculated using WinNonlin software (Scientific Consulting Inc.). The bioavailability was calculated as AUCp.o./AUCi.v., where AUCp.o. and AUC i.v. are areas under the plasma concentration-time curve after oral and i.v. administration, respectively.

The mark [12] stands for this setting: pH 6, aqueous buffer, pH6, read-out: Solubility μg/ml pH6.

Sequence of H S A (P02768 25-609): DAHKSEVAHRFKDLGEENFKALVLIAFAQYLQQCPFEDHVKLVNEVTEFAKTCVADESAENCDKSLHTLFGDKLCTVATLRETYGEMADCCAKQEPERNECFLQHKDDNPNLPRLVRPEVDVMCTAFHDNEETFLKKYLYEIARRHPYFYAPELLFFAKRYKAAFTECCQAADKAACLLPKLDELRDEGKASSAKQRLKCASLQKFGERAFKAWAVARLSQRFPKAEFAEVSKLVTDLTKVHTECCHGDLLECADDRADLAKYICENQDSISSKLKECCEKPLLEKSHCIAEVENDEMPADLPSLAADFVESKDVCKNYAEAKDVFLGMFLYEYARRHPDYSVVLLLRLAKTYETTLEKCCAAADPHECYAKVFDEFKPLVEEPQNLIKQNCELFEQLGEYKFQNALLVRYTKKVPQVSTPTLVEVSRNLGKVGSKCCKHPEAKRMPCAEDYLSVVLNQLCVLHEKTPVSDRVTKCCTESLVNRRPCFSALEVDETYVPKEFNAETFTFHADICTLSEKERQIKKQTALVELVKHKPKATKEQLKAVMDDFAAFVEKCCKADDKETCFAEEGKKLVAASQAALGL

As a reminder, the Ki is the equilibrium dissociation constant of an inhibitor or competing ligand from its target. In the case of `CNc1nc(OC)c(NC(=O)c2ccc(Cc3cc4c(cc3C)C(C)(C)CCC4(C)C)o2)c(OC)n1` [Example B1, 5-(3,5,5,8,8-Pentamethyl-5,6,7,8-tetrahydro-naphthalen-2-ylmethyl)-furan-2-carboxylic Acid (4,6-dimethoxy-2-methylamino-pyrimidin-5-yl)-amide], the “Fem. Rat (FR) % rem. 30′” value in [1] was 94%. In data set [1], the “Male Rat (MR) % rem. 30′” value came to 1%. In addition, the solubility in data set [2] (pH 2, simulated gastric fluid, pH2, read-out: Solubility μg/ml pH2) is 1.2 µg/mL (≈ 2.44 µM); in [2] (setting [12]) it was 0.4 µg/mL (≈ 0.812 µM). Also, the “Rat plasma % remain” value in data set [3] is listed as 100%. Also, the Monkey % rem. in data set [4] is reported as 0%. In addition, the figures for the Ki in data set [5], in [7] and in data set [8] were 0.75 nM, 1 nM and 0.79 nM, respectively. Besides, the “Human % rem. 30′” value in data set [6] came to 54%. For the same compound, the “Dog % rem. 30′” value in data set [9] turned out to be 2%.

For `COc1nc(N2CCOCC2)nc(OC)c1NC(=O)c1ccc(Cc2cc3c(cc2C)C(C)(C)CCC3(C)C)o1` [Example B3, 5-(3,5,5,8,8-Pentamethyl-5,6,7,8-tetrahydro-naphthalen-2-ylmethyl)-furan-2-carboxylic Acid (4,6-dimethoxy-2-morpholin-4-yl-pyrimidin-5-yl)-amide], the Ki amounted to 5.3 nM in data set [5], 4.7 nM in [7] and 14 nM in data set [8].

As a reminder, the Cmax is the peak of the concentration-time curve. The term Tmax denotes the time from dosing to the highest level. Turning to `COc1nc(Nc2ccccc2)nc(OC)c1NC(=O)c1ccc(Cc2cc3c(cc2C)C(C)(C)OC3(C)C)o1` [Example D1, 5-(1,1,3,3,6-Pentamethyl-1,3-dihydro-isobenzofuran-5-ylmethyl)-furan-2-carboxylic Acid (4,6-dimethoxy-2-phenylamino-pyrimidin-5-yl)-amide], in [1], the “Fem. Rat (FR) % rem. 30′” value stood at 81% and the “Male Rat (MR) % rem. 30′” value stood at 20%. In data set [2] (setting [12]), the solubility is more than 15 µg/mL. Moreover, the “Rat plasma % remain” value in data set [3] is given as 100%. Moreover, in data set [4], the Monkey % rem. came to 22%. For the same compound, in data set [10], the “H S A column α” value was 8. For the same compound, in data set [6], the “Human % rem. 30′” value was 82%. Moreover, in data set [7], affinity was put at a Ki of 1.6 nM. The Ki in data set [8] worked out at 2.1 nM. Moreover, in data set [11], the “FR Fp.o.” value turned out to be 2%^5, the Cmax amounted to 100 nM, the half-life is 1.2 h and the Tmax stood at 1 h. Also, the “Dog % rem. 30′” value in data set [9] came out at 52%.

Take `COc1nc(NCCN2CCCC2)nc(OC)c1NC(=O)c1ccc(Cc2cc3c(cc2C)C(C)(C)OC3(C)C)o1` [Example D23, N-{4,6-Dimethoxy-2-[(2-pyrrolidin-1-ylethyl)amino]-pyrimidin-5-yl}-5-[(1,1,3,3,6-pentamethyl-1,3-dihydro-2-benzofuran-5-yl)methyl]-2-furamide Acetate]: the values for the Ki in data set [5], in [7] and in data set [8] were 1.7 nM, 1.6 nM and 0.92 nM, respectively.

For `COc1nc(NCCCN2CCOCC2)nc(OC)c1NC(=O)c1ccc(Cc2cc3c(cc2Cl)C(C)(C)CCC3(C)C)o1` [Example G1, 5-(3-Chloro-5,5,8,8-tetramethyl-5,6,7,8-tetrahydro-naphthalen-2-ylmethyl)-furan-2-carboxylic acid[4,6-dimethoxy-2-(3-morpholin-4-yl-propylamino)-pyrimidin-5-yl]-amide], in data set [1], the “Fem. Rat (FR) % rem. 30′” value is 92% and the “Male Rat (MR) % rem. 30′” value came out at 80%. Further, the “Rat plasma % remain” value in data set [3] was determined as 92%. Besides, the Monkey % rem. in data set [4] was 0%. Moreover, the “H S A column α” value in [10] was more than 30. Also, in [6], the “Human % rem. 30′” value is 79%. Also, the affinity in data set [7] corresponds to a Ki of 1.7 nM. The Ki in data set [8] amounted to 0.9 nM. In addition, in [11], the “FR Fp.o.” value is 10%^5, the Cmax stood at 200 nM, the half-life is 4.1 h and the Tmax is 2 h. Further, the “Dog % rem. 30′” value in data set [9] stood at 70%.
